This is an account of results in ChEMBL document CHEMBL4359837, “Discovery of 2-(4-Chloro-3-(trifluoromethyl)phenyl)-N-(4-((6,7-dimethoxyquinolin-4-yl)oxy)phenyl)acetamide (CHMFL-KIT-64) as a Novel Orally Available Potent Inhibitor against Broad-Spectrum Mutants of c-KIT Kinase for Gastrointestinal Stromal Tumors” (J Med Chem, 2019).

Data set [1] relates to Mast/stem cell growth factor receptor Kit (Homo sapiens), P10721 [UNDEFINED MUTATION]. Particulars: GISTT1, 0.1 uM.
Description: Inhibition of c-KIT 560 to 578 deletion/T670I mutant in human GISTT1 cells assessed as reduction in AKT phosphorylation at S473 residue at 0.1 uM measured after 2 hrs by Western blot analysis
For data set [2] the test system is unchanged. Particulars: GISTT1, 0.1 uM. The source holds these as a separate data set.
Description: Inhibition of c-KIT 560 to 578 deletion/T670I mutant in human GISTT1 cells assessed as reduction in pS6 phosphorylation at S236 residue at 0.1 uM measured after 2 hrs by Western blot analysis
Data set [3] has the same test system. The settings on record: GISTT1, 0.1 uM. This is another data set of the same source.
Description: Inhibition of c-KIT 560 to 578 deletion/T670I mutant in human GISTT1 cells assessed as reduction in AKT phosphorylation at T308 residue at 0.1 uM measured after 2 hrs by Western blot analysis
For data set [4] the test system is unchanged. Particulars: 0.1 uM.
Description: Inhibition of c-KIT 560 to 578 deletion/T670I mutant in human GIST5R cells assessed as reduction in c-KIT autophosphorylation at Y823 residue at 0.1 uM measured after 2 hrs by Western blot analysis
For data set [5] the test system is unchanged. The settings on record: 0.1 uM. This is another data set of the same source.
Description: Inhibition of c-KIT 560 to 578 deletion/T670I mutant in human GIST5R assessed as reduction in STAT3 phosphorylation at Y705 residue at 0.1 uM measured after 2 hrs by Western blot analysis
The target of data set [6] is T1, Platelet-derived growth factor receptor alpha (Homo sapiens, UniProt P16234). It counts as cell-based. The settings on record: GISTT1.
T1 sequence (P16234 whole entry): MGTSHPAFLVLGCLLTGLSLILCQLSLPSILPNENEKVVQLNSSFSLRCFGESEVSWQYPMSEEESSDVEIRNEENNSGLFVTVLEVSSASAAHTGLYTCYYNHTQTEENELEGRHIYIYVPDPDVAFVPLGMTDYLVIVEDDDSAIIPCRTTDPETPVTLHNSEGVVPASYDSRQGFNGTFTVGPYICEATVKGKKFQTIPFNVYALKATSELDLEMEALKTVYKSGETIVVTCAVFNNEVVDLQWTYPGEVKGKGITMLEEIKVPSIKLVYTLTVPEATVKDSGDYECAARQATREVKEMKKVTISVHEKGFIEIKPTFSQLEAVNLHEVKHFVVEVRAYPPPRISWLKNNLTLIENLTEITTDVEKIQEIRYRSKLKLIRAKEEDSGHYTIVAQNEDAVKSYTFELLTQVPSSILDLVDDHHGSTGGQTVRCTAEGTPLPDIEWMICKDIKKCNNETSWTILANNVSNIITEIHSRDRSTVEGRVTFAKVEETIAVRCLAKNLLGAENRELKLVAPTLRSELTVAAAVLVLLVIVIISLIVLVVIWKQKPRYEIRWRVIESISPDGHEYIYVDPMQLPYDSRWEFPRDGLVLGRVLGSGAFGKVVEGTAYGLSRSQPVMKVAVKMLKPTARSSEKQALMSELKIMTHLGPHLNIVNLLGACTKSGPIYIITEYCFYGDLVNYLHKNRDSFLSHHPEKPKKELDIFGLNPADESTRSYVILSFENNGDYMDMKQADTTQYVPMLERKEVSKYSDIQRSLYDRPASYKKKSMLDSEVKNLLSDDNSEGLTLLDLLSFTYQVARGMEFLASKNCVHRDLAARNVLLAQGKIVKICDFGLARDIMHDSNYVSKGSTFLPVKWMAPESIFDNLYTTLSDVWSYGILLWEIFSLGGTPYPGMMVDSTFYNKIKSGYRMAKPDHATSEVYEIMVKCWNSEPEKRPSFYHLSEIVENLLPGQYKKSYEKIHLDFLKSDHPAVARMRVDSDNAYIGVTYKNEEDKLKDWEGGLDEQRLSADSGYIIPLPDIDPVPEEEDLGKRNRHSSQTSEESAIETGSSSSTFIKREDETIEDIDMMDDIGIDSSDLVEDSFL
For data set [7], the system named is Homo sapiens. The class given is functional. Particulars: 20 mg/kg.
Data set [8] concerns the target T2, Mast/stem cell growth factor receptor Kit (Homo sapiens, UniProt P10721, 560-578DEL/T670I). The class given is cell-based, GISTT1.
For data set [9], the target named is Macrophage colony-stimulating factor 1 receptor (Mus musculus) (UniProt P09581). As to the kind of experiment: Inhibition of CSF1R in mouse BAF3(transformed) cells assessed as growth inhibition after 72 hrs by CCK8 assay. A general note: Formazan colour is commonly taken as a measure of viable cells.
Data set [10] deals with Mus musculus. The class given is functional, organism-based. Particulars: BALB/c, 80 mg/kg.
In data set [11] the test system is GISTT1. It counts as functional, cell-based. Particulars: Homo sapiens.
In data set [12] the test system is GISTT1. It counts as functional, cell-based. The settings on record: Homo sapiens. This is another data set of the same source.
Data set [13] can be described thus: Protein binding in plasma (unknown origin). It counts as ADME, cell-free. The settings on record: read-out: PPB.
Data set [14] deals with Vascular endothelial growth factor receptor 3 (Mus musculus) (UniProt P35917). As to the kind of experiment: Inhibition of FLT4 in mouse BAF3(transformed) cells assessed as growth inhibition after 72 hrs by CCK8 assay.
Chain of Vascular endothelial growth factor receptor 3 (Mus musculus) (P35917 whole entry): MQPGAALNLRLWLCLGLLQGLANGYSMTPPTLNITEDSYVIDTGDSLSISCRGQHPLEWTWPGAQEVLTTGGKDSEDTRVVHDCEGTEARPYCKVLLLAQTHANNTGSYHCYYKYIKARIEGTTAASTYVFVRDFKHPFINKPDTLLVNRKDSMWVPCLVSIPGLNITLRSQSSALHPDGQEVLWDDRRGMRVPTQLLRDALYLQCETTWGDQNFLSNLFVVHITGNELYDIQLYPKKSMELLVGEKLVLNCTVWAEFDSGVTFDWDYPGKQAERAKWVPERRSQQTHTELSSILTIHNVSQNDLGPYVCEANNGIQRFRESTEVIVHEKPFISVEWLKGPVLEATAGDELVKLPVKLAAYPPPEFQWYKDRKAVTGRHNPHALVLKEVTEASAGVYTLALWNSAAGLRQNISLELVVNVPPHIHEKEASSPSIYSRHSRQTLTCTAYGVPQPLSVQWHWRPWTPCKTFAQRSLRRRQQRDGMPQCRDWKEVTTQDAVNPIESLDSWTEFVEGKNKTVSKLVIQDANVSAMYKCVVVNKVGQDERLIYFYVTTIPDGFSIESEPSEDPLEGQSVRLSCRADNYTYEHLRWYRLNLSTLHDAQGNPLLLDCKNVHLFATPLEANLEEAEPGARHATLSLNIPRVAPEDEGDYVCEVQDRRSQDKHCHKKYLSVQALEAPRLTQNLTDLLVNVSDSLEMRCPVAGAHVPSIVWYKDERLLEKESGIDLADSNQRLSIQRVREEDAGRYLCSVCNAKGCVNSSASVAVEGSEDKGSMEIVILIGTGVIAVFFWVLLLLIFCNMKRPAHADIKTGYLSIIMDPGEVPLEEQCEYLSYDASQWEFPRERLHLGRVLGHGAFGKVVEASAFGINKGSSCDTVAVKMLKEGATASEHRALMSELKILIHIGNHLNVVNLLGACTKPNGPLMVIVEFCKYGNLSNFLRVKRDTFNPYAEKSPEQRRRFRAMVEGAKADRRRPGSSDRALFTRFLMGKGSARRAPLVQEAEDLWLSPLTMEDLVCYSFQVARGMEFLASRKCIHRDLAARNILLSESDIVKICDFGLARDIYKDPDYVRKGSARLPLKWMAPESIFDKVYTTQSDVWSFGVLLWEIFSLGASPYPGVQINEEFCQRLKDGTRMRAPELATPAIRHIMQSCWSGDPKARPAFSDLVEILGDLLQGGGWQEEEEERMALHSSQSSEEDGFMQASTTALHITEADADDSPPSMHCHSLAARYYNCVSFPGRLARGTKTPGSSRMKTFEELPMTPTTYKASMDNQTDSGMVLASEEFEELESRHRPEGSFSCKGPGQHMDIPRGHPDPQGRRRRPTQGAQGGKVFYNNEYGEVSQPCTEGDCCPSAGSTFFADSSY
The nature of data set [15]: Tmax in Sprague-Dawley rat at 10 mg/kg, po by LC-MS/MS analysis. It counts as ADME, organism-based. Particulars: in vivo.
Data set [16] deals with Mast/stem cell growth factor receptor Kit (Homo sapiens, UniProt P10721). As to the kind of experiment: Inhibition of human KIT.
Chain of Mast/stem cell growth factor receptor Kit (Homo sapiens, UniProt P10721) (P10721 whole entry): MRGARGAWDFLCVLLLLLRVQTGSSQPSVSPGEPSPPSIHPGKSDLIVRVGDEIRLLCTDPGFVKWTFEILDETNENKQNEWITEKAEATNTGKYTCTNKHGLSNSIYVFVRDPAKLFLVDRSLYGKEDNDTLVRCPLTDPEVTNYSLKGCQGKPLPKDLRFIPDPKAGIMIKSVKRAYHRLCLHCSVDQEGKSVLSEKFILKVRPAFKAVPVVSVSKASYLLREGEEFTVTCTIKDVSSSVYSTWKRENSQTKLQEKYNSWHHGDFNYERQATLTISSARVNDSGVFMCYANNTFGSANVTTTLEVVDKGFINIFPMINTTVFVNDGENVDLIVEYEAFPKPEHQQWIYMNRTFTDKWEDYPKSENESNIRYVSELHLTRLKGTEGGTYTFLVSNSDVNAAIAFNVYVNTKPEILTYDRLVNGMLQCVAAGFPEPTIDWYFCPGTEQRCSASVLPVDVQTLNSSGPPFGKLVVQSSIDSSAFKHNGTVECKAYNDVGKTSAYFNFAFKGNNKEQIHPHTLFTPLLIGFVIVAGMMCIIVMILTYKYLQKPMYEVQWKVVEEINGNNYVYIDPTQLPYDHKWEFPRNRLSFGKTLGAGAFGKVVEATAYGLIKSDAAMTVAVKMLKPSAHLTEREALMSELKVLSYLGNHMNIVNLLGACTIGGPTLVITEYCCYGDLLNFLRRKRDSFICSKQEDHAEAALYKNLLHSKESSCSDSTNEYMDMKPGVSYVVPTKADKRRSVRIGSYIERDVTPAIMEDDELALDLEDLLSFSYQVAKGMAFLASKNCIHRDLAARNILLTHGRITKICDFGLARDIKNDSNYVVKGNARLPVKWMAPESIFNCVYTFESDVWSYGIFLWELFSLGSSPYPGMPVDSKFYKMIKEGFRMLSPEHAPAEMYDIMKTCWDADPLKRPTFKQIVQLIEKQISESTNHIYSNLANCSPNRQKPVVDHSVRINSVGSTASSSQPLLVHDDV
The target in data set [17] is T2, Mast/stem cell growth factor receptor Kit. The class given is cell-based, GISTT1. The source holds these as a separate data set.
Data set [18] in a line: AUC (0 to t) in Beagle dog at 1 mg/kg, iv by LC-MS/MS analysis. It counts as ADME, organism-based, Canis lupus familiaris. Particulars: in vivo.
Data set [19] concerns the target Platelet-derived growth factor receptor alpha (Mus musculus) (UniProt P26618). As to the kind of experiment: Inhibition of PDGFRA in mouse BAF3(transformed) cells assessed as growth inhibition after 72 hrs by CCK8 assay.
The target of data set [20] is T2, Mast/stem cell growth factor receptor Kit. The class given is cell-based.
For data set [21], the system named is Mus musculus. As to the kind of experiment: Antitumor activity against mouse BAF3(transformed) cells harboring c-KIT T670I mutant implanted in BALB/c nu mouse assessed as tumor growth inhibition administered via oral gavage for 11 days. It counts as functional.
Data set [22] deals with T2, Mast/stem cell growth factor receptor Kit. The class given is cell-based. This is another data set of the same source.
Data set [23] shares this target.
Data set [24] deals with Mast/stem cell growth factor receptor Kit (Homo sapiens, UniProt P10721, T670I/V559D). As to the kind of experiment: Inhibition of human N-terminal GST-tagged KIT V559D/T670I double mutant (544 to end residues) expressed in baculovirus infected Sf9 insect cells by Lanthascreen Eu-binding method. On the technique in general: In TR-FRET formats the signal depends on donor and acceptor labels being close together.

The target in data set [25] is RAC-alpha serine/threonine-protein kinase (Homo sapiens) (UniProt P31749). The class given is cell-based. The settings on record: GISTT1.
The test system of data set [26] is Mus musculus. It counts as functional, organism-based. Particulars: BALB/c, 80 mg/kg. The source holds these as a separate data set.
Data set [27] deals with T1, Platelet-derived growth factor receptor alpha. As to the kind of experiment: Inhibition of recombinant human GST-tagged PDGFRA cytoplasmic domain (550 to 1089 residues) expressed in baculovirus expression system by Z-lyte assay.
The test system of data set [28] is GISTT1. The class given is functional, Homo sapiens. The settings on record: Mus musculus, GISTT1, po, 672 h; read-out: TGI.
Data set [29] concerns the target T2, Mast/stem cell growth factor receptor Kit. The source holds these as a separate data set.
Data set [30] is filed under the species Homo sapiens. It counts as functional, cell-based.
For data set [31], the target named is T2, Mast/stem cell growth factor receptor Kit. It counts as cell-based, GISTT1. This is another data set of the same source.
The test system of data set [32] is Mus musculus. The class given is functional, organism-based. Particulars: BALB/c, 80 mg/kg, TDE = time-dependent effect.
Data set [33] can be described thus: Antitumor activity against mouse BAF3(transformed) cells harboring c-KIT Y823D mutant implanted in BALB/c nu mouse assessed as tumor growth inhibition at 40 mg/kg/day, po administered via gavage for 9 days relative to control. The class given is functional. Particulars: 216 h, read-out: TGI.
A short description of data set [34]: Toxicity in BALB/c nu mouse implanted with mouse BAF3(transformed) cells harboring c-KIT T670I mutant assessed as change in body weight at 40 to 100 mg/kg/day, po administered via gavage for 11 days measured daily during compound dosing. It counts as organism-based. The settings on record: in vivo, 264 h.
In data set [35] the test system is Mast/stem cell growth factor receptor Kit (Homo sapiens), P10721 [Y823D]. The settings on record: Mus musculus.
Chain of Mast/stem cell growth factor receptor Kit (Homo sapiens), P10721 [Y823D] (P10721 whole entry Y823D): as the sequence (P10721 whole entry) above, with Y823D counted along it
Description: Inhibition of c-KIT Y823D mutant in mouse BAF3(transformed) cells assessed as growth inhibition after 72 hrs by CCK8 assay
Data set [36] is described as follows: Toxicity in BALB/c nu mouse implanted with mouse BAF3(transformed) cells harboring c-KIT D820G mutant assessed as change in body weight at 40 to 80 mg/kg/day, po administered via gavage for 9 days measured daily during compound dosing. The class given is organism-based. The settings on record: in vivo, 216 h.
For data set [37], the system named is Mus musculus. The class given is functional, organism-based. The settings on record: BALB/c, 80 mg/kg, TDE = time-dependent effect. This is another data set of the same source.

pEC50, pIC50: −log10 of the molar value. Active and inactive are the calls of the source. The rule behind the calls is not given here.

Chain of Mast/stem cell growth factor receptor Kit (Homo sapiens), P10721 [UNDEFINED MUTATION] (P10721 whole entry, looked up, change not shown): as the sequence (P10721 whole entry) above
T2 sequence (P10721 whole entry, looked up, stated change not applied): as the sequence (P10721 whole entry) above
Chain of Platelet-derived growth factor receptor alpha (Mus musculus) (P26618 whole entry): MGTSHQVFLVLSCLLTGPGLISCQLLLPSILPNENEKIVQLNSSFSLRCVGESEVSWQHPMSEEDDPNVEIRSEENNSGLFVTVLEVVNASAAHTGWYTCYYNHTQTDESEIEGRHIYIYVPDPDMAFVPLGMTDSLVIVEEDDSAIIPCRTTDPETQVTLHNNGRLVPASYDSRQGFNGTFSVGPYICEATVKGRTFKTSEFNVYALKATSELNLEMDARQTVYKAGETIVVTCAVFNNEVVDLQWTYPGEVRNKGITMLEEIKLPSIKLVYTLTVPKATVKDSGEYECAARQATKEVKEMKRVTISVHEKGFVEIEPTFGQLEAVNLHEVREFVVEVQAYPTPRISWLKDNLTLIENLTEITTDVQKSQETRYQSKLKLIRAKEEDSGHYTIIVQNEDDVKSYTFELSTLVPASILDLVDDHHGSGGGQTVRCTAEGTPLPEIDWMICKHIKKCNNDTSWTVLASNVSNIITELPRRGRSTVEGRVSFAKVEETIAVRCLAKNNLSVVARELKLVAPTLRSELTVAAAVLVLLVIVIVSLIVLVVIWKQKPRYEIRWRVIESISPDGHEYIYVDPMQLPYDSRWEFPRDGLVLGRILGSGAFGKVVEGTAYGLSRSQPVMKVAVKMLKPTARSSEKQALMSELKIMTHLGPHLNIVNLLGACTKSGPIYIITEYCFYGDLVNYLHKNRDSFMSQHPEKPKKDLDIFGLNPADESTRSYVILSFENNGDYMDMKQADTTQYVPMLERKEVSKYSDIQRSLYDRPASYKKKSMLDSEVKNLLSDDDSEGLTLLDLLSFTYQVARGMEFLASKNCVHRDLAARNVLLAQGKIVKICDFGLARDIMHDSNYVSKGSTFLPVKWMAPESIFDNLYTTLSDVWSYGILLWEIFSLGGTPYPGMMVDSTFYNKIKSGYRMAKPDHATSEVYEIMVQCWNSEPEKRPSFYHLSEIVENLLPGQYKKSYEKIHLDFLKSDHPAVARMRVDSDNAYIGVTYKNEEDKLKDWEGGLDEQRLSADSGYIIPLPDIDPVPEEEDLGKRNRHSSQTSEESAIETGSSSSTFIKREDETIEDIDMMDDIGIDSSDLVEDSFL

Take `CCN(CC)CCNC(=O)c1c(C)[nH]c(/C=C2\C(=O)Nc3ccc(F)cc32)c1C` [SUNITINIB]: the inhibition result in [1], in data set [2], in data set [3], in data set [4] and in data set [5] was “Active” in each case.

As a reminder, the pEC50 is −log10 of the EC50, conventionally taken in molar units. A low value points to a large EC50. As a reminder, the GI50 is the concentration giving 50% growth inhibition. As usually defined, the Tmax is the time from dosing to the highest level. In general, pIC50 refers to the negative decadic logarithm of the IC50, by convention in mol/L. For orientation: AUC(0-t) means exposure summed from dosing to a finite time, without extrapolation to infinity. High values mean more exposure, low ones less exposure. Take `COc1cc2nccc(Oc3ccc(NC(=O)Cc4ccc(Cl)c(C(F)(F)F)c4)cc3)c2cc1OC`: the inhibition entry in [6] is “Active”. Further, the TGI result in data set [7], in [11] and in data set [21] was “Dose-dependent effect” throughout. Besides, the negative-log EC50 (pEC50) in data set [8], in data set [17], in data set [20], in [22], in data set [23] and in data set [29] was > 7.00 throughout. Further, the pEC50 in data set [31] was > 7.00. Also, the concentration for 50% growth inhibition (GI50) stood at 3 nM in data set [9], 522 nM in data set [14], 1 nM in data set [19] and 35 nM in data set [35]. The inhibition result in data set [10], in data set [25] and in [26] was “inactive” in each case. Further, the Activity result in data set [12] was “Dose-dependent effect”; in data set [30] it was “Dose-dependent effect”; in data set [34] it was “Non-Toxic”; in [36] it was “Non-Toxic”. Moreover, the fraction unbound in data set [13] was < 0.1. Moreover, in [15], the Tmax was determined as 9 h. The negative logarithm of the IC50 (pIC50) in data set [16] was 8.40; in [24], 8.10; in data set [27], 7.60. In addition, the exposure AUC(0-t) in data set [18] came out at 5320 ng·h/mL. In addition, the inhibition in vivo at 40 mg/kg/day in data set [28] was found to be 96.9%; in data set [33], 81.8%. Besides, the inhibition entry in data set [32] and in data set [37] was “Tde” in each case.
